This passage reports IC50, Papp B→A and Papp A→B results from patent US8846698B2, “Pyrrolo[2,3-d]pyrimidine tropomysin-related kinase inhibitors” (Pfizer Limited, priority 2011, dated 2014).

Series [1] has as its target T1, TRKB (Homo sapiens (Human), UniProt Q16620). Nature of the series: biochemical.
The target in series [2] is T2, TRKA (Homo sapiens (Human), UniProt P04629). Nature of the series: Isolated TRK enzyme assay (HTRF KinEASE-TK), TRKA. As to conditions: isolated TRKA enzyme; read-out: TrkA enzyme potency. Format: biochemical.
Target sequence in this assay (P04629 441-796): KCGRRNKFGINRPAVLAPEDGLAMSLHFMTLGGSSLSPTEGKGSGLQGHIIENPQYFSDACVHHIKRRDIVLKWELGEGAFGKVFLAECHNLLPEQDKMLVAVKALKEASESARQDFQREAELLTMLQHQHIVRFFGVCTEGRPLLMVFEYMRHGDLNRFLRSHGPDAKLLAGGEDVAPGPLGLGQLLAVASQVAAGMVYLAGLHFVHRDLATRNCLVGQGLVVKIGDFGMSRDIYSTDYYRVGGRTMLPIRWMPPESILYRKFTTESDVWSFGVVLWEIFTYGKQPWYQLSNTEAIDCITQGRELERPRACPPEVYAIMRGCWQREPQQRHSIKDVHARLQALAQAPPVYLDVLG
Series [3] deals with MDR1 (Homo sapiens (Human), UniProt P08183). Nature of the series: MDCK-MDR1 assay (in vitro brain penetration). Format: in vitro ADME. As to conditions: human; for Papp B→A: read-out: MDCK MDR1 Papp BA; for Papp A→B: MDCK-MDR1, A to B, read-out: MDCK MDR1 Papp AB. The text has this:
MDCK-MDR1: MDCK-MDR1 data were collected according to the method described in “Are MDCK Cells Transfected with the Human MDR1 Gene a Good Model of the Human Intestinal Mucosa?”
http://www.springerlink.com/content/qfhqlqbr4fnp3 khf/fulltext.pdf

Series [4] concerns the target T1, TRKB. As to the kind of experiment: cell-based. The following applies: TrkB cell potency, TRKB PathHunter cell line.
Series [5] concerns the target TRKC (Homo sapiens (Human), UniProt Q16288). As to the kind of experiment: Cell based DiscoveRx PathHunter antagonist assay, TRKC cell line. As to conditions: read-out: TrkC cell potency. The protocol: After the Detection Reagent addition, plates are covered and incubated at room temperature for 60 minutes. […] Test compound data are expressed as percentage inhibition defined by HPE and ZPE values for each plate. Percentage inhibition in the presence of test compound is plotted against compound concentration on a log scale to determine an IC50 from the resultant sigmoid curve. Cell Based Assays were carried out using Cell lines from DiscoveRx utilising their PathHunter technology and reagents in an antagonist assay:
The assays are based upon DiscoveRx's proprietary Enzyme Fragment Complementation (EFC) technology. In the case of the TRK cell lines, the enzyme acceptor (EA) protein is fused to a SH2 protein and the TRK receptor of interest has been tagged with a Prolink tag.
Upon neurotrophin binding, the TRK receptor becomes phosphorylated, and the tagged SH2 protein binds.
This means that the IC50 is a good measure of affinity and should be unaffected by concentration neurotrophin stimulant.
Cryopreserved PathHunter cells are used from either in-house produced batches or bulk batches bought directly from DiscoveRx. Cryopreserved cells are resuscitated, spun 1000 rpm for 4 min to remove freezing media, and resuspended in MEM+0.5% horse serum (both Invitrogen) to 5e^5 cells/ml. The cells are then plated using a Multidrop into Greiner white tissue culture treated plates at 20 ul/well and incubated for 24 h at 37° C., 5% CO2, high humidity. On the day of the assay, the cell plates are allowed to cool to room temperature for 30 min prior to the assay.
Plates containing 1 ul of serially diluted compound, standard and HPE/ZPE are diluted 1/66 in assay buffer (PBS minus Ca^2+, minus Mg^2+ with 0.05% pluronic F127) using a Wellmate. […] The plates are left at room temperature for a further 2 hours before addition of 10 ul of the DiscoveRx PathHunter detection reagent (made up by adding 1 part Galacton Star, 5 parts Emerald II and 19 parts Cell Assay Buffer as per the manufacturer's instructions).
After reagent addition, plates are covered and incubated at room temperature for 60 minutes. Luminescence signal is read using an Envision. Test compound data are expressed as percentage inhibition defined by HPE and ZPE values for each plate. Percentage inhibition in the presence of test compound is plotted against compound concentration on a log scale to determine an […] from the resultant sigmoid curve.

Series [6] addresses T2, TRKA. As to the kind of experiment: Cell based DiscoveRx PathHunter antagonist assay, TRKA cell line. The following applies: read-out: TrkA cell potency.
Target sequence in this assay (P04629 33-796): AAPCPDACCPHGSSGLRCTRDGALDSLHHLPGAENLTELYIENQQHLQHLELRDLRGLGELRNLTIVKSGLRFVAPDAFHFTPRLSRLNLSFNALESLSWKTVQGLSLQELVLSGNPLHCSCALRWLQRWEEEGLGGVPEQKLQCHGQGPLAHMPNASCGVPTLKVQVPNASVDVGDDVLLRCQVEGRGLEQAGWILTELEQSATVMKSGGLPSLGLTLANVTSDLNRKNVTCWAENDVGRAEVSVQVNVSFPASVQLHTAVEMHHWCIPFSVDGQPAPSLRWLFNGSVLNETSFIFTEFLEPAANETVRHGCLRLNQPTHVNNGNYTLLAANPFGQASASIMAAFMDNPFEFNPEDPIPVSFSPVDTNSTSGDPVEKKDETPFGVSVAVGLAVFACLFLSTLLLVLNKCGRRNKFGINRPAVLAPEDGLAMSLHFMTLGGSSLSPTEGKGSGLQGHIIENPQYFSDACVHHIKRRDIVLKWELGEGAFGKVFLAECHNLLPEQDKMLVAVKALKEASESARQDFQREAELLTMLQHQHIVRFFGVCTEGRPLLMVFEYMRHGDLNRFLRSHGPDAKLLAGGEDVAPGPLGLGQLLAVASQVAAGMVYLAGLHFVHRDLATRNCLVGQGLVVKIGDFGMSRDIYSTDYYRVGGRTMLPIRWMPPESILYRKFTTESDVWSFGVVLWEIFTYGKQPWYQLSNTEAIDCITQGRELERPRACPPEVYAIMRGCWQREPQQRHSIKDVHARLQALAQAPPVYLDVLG
Where [7] appears, read: isolated TRKB enzyme, read-out: TrkB enzyme potency.

The structures appear in SMILES notation. Like-named read-outs stand apart in the source and are kept apart here.

Chain of TRKC (Q16288 32-839): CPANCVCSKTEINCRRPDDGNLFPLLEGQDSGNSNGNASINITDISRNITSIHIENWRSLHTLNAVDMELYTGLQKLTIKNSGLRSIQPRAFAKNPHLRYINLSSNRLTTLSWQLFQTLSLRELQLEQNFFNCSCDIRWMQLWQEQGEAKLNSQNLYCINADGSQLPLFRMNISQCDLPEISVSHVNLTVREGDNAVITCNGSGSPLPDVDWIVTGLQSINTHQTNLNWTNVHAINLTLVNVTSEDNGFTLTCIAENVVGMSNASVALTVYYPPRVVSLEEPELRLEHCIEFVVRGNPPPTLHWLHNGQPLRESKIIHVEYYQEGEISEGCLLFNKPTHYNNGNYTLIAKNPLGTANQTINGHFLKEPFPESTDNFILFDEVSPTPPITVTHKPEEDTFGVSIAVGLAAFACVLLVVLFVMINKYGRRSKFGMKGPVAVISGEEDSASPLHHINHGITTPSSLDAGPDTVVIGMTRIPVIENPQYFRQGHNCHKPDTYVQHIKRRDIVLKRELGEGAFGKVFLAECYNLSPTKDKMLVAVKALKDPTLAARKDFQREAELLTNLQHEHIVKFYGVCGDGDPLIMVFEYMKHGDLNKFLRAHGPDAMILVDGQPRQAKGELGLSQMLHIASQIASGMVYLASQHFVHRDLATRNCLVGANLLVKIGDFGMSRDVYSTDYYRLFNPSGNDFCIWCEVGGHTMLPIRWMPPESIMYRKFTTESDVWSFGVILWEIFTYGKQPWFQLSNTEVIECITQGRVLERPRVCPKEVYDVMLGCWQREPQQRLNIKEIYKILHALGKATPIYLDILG
Chain of MDR1 (P08183 whole entry): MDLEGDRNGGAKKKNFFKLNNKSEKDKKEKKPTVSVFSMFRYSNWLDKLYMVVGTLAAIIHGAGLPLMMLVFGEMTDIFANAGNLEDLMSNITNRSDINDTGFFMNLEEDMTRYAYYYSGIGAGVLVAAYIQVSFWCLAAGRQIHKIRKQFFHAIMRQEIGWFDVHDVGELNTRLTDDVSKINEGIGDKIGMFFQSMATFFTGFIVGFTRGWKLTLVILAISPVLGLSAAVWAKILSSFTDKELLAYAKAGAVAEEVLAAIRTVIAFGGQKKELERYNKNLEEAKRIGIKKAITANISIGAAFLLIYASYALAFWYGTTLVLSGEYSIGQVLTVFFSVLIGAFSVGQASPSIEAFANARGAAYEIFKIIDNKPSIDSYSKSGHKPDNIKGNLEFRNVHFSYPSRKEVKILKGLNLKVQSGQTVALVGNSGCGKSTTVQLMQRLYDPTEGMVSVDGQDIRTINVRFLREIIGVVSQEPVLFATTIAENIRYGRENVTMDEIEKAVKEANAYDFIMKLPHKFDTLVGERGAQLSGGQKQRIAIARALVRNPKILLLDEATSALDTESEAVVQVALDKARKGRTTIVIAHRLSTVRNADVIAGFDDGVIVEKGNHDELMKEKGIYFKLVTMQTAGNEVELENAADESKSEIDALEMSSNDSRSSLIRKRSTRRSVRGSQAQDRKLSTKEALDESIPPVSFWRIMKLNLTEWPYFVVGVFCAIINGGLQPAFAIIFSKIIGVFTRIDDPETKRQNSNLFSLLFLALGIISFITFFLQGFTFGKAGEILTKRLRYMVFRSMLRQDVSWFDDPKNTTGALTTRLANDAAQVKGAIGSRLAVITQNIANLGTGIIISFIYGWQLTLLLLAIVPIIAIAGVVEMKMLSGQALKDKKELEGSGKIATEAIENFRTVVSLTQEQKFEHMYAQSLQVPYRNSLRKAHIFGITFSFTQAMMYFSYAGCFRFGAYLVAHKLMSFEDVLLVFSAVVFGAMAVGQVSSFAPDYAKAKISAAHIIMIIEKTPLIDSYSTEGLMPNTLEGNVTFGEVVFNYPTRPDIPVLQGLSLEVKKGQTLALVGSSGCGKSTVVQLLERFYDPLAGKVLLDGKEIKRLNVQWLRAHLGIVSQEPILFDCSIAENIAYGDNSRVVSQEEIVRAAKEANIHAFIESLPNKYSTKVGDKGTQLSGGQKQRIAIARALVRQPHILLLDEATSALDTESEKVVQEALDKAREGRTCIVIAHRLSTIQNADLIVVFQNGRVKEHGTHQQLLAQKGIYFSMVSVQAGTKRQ
T1 sequence (Q16620 32-822 limits assumed): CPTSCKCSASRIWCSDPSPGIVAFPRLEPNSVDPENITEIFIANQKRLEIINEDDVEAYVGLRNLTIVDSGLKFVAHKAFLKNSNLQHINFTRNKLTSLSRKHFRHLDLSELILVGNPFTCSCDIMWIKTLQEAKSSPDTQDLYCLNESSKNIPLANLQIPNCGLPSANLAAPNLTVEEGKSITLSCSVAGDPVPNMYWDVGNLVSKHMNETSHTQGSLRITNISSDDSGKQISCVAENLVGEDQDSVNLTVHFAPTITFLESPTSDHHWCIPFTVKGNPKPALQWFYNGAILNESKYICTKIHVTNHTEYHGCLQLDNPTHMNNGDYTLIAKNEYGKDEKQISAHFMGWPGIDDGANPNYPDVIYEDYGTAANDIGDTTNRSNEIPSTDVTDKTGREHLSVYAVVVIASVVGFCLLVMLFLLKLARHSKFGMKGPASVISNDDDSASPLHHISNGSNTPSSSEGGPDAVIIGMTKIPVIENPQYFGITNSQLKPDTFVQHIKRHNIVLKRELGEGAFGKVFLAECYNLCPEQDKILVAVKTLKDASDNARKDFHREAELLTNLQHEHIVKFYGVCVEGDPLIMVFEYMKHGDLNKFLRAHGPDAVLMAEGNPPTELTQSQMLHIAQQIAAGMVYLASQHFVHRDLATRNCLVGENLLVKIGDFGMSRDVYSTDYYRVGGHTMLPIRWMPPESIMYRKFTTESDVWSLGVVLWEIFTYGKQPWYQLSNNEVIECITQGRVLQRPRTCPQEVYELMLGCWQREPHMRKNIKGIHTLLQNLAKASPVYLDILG

As to `CC(C)(C)n1cc(C(=O)c2cncc(NC(=O)Cn3ccc(C(F)(F)F)n3)c2)c2cncnc21` [Example 5, N-{5-[(7-tert-butyl-7H-pyrrolo[2,3-d]pyrimidin-5-yl)carbonyl]pyridin-3-yl}-2-[3-(trifluoromethyl)-1H-pyrazol-1-yl]acetamide], the IC50 in series [1] (setting [7]) amounted to 73 nM; in series [2], 2.6 nM; in series [4], 3.6 nM; in series [5], 2 nM; in series [6], 3.5 nM. Moreover, in series [3] (MDCK-MDR1, MDCK-MDR1, B to A), the Papp B→A came to 14 ×10⁻⁶ cm/s. In addition, the Papp A→B in series [3] was determined as 1.5 ×10⁻⁶ cm/s.
Regarding `CC(C)(C)n1cc(C(=O)c2cncc(NC(=O)Cn3cc(C(F)(F)F)cn3)c2)c2cncnc21` [Example 8, N-{5-[(7-tert-butyl-7H-pyrrolo[2,3-d]pyrimidin-5-yl)carbonyl]pyridin-3-yl}-2-[4-(trifluoromethyl)-1H-pyrazol-1-yl]acetamide], the IC50 was determined as 15 nM in series [1] (TrkB enzyme potency); 2.4 nM in series [2]; 2 nM in series [4]; 2.3 nM in series [5]; 1.9 nM in series [6]. Also, in series [3], the Papp A→B was determined as 1.8 ×10⁻⁶ cm/s. In series [3] (MDCK-MDR1, B to A), the Papp B→A was found to be 15 ×10⁻⁶ cm/s.
For the molecule `Cc1cc(C(F)(F)F)nn1CC(=O)Nc1cncc(C(=O)c2cn([C@@H](C)CO)c3ncncc23)c1` [Example 10, N-[5-({7-[(1S)-2-Hydroxy-1-methylethyl]-7H-pyrrolo[2,3-d]pyrimidin-5-yl}carbonyl)pyridin-3-yl]-2-[5-methyl-3-(trifluoromethyl)-1H-pyrazol-1-yl]acetamide], the IC50 in series [1] (setting [7]) was found to be 78 nM; in series [2], 5.7 nM; in series [4], 18 nM; in series [5], 18 nM; in series [6], 30 nM. In addition, the Papp B→A in series [3] (MDCK-MDR1, MDCK-MDR1, B to A) came out at 14 ×10⁻⁶ cm/s. Also, the Papp A→B in series [3] was under 1 ×10⁻⁶ cm/s.
In the case of `C[C@@H](CO)n1cc(C(=O)c2cncc(NC(=O)Cc3ccc(Cl)cc3)c2)c2cncnc21` [Example 11, 2-(4-chlorophenyl)-N-[5-({7-[(1S)-2-hydroxy-1-methylethyl]-7H-pyrrolo[2,3-d]pyrimidin-5-yl}carbonyl)pyridin-3-yl]acetamide], the IC50 in series [1] (TrkB enzyme potency) came to 197 nM; in series [2], 3.3 nM; in series [4], 11 nM; in series [5] it was 6.6 nM; in series [6] it was 17 nM. In series [3], the Papp A→B was under 1 ×10⁻⁶ cm/s. Further, the Papp B→A in series [3] (MDCK-MDR1, B to A) was 23 ×10⁻⁶ cm/s.
Consider `C[C@@H](CO)n1cc(C(=O)c2cncc(NC(=O)Cc3ccc(Cl)cn3)c2)c2cncnc21` [Example 14, 2-(5-chloropyridin-2-yl)-N-[5-({7-[(1S)-2-hydroxy-1-methylethyl]-7H-pyrrolo[2,3-d]pyrimidin-5-yl}carbonyl)pyridin-3-yl]acetamide], for which the IC50 turned out to be 773 nM in series [1] (setting [7]); 13 nM in series [2]; 15 nM in series [4]; 4.8 nM in series [5]; 41 nM in series [6]. Besides, the Papp B→A in series [3] (MDCK-MDR1, MDCK-MDR1, B to A) was determined as 21 ×10⁻⁶ cm/s. Besides, the Papp A→B in series [3] was under 1 ×10⁻⁶ cm/s.
Turning to `C[C@H](CO)n1cc(C(=O)c2cncc(NC(=O)Cc3ccc(Cl)cc3)c2)c2cncnc21` [Example 24, 2-(4-chlorophenyl)-N-[5-({7-[(1R)-2-hydroxy-1-methylethyl]-7H-pyrrolo[2,3-d]pyrimidin-5-yl}carbonyl)pyridin-3-yl]acetamide], the IC50 in series [1] (TrkB enzyme potency) is 427 nM; in series [2], 125 nM; in series [4] it was 27 nM; in series [5], 8.9 nM; in series [6], 37 nM. In addition, in series [3], the Papp A→B is under 1 ×10⁻⁶ cm/s. Besides, the Papp B→A in series [3] (MDCK-MDR1, B to A) is 10 ×10⁻⁶ cm/s.
As to `CC(C)(CO)n1cc(C(=O)c2cncc(NC(=O)Cc3ccc(C(F)(F)F)cc3)c2)c2cncnc21` [Example 27, N-(5-{[7-(2-hydroxy-1,1-dimethylethyl)-7H-pyrrolo[2,3-d]pyrimidin-5-yl]carbonyl}pyridin-3-yl)-2-[4-(trifluoromethyl)phenyl]acetamide], the IC50 in series [1] (setting [7]) is 55 nM; in series [2], 2.8 nM; in series [4] it was 5.4 nM; in series [5], 3.2 nM; in series [6], 3.9 nM. Further, the Papp B→A in series [3] (MDCK-MDR1, MDCK-MDR1, B to A) was 17 ×10⁻⁶ cm/s. Further, the Papp A→B in series [3] is under 1 ×10⁻⁶ cm/s.
Turning to `CC(C)(CO)n1cc(C(=O)c2cncc(NC(=O)Cn3cc(C(F)(F)F)nn3)c2)c2cncnc21` [Example 32, N-(5-{[7-(2-hydroxy-1,1-dimethylethyl)-7H-pyrrolo[2,3-d]pyrimidin-5-yl]carbonyl}pyridin-3-yl)-2-[4-(trifluoromethyl)-1H-1,2,3-triazol-1-yl]acetamide], the IC50 in series [1] (setting [7]) stood at 423 nM; in series [2], 9 nM; in series [4] it was 59 nM; in series [5], 18 nM; in series [6] it was 87 nM. Also, the Papp B→A in series [3] (MDCK-MDR1, MDCK-MDR1, B to A) worked out at 3.4 ×10⁻⁶ cm/s. Moreover, the Papp A→B in series [3] was under 1 ×10⁻⁶ cm/s.
As for `CC(C)(CO)n1cc(C(=O)c2cncc(NC(=O)Cc3ccc(C(F)(F)F)cc3)c2)c2cnc(N)nc21` [Example 48, N-(5-{[2-amino-7-(2-hydroxy-1,1-dimethylethyl)-7H-pyrrolo[2,3-d]pyrimidin-5-yl]carbonyl}pyridin-3-yl)-2-[4-(trifluoromethyl)phenyl]acetamide], the IC50 came to 40 nM in series [1] (setting [7]); 1.7 nM in series [2]; 3.6 nM in series [4]; 2.5 nM in series [5]; 2.9 nM in series [6]. Also, the Papp B→A in series [3] (MDCK-MDR1, MDCK-MDR1, B to A) stood at 12 ×10⁻⁶ cm/s. Moreover, the Papp A→B in series [3] was under 1 ×10⁻⁶ cm/s.
As for `CC(C)(CO)n1cc(C(=O)c2cncc(NC(=O)Cc3ccc(F)cn3)c2)c2cnc(N)nc21` [Example 51, N-(5-{[2-amino-7-(2-hydroxy-1,1-dimethylethyl)-7H-pyrrolo[2,3-d]pyrimidin-5-yl]carbonyl}pyridin-3-yl)-2-(5-fluoropyridin-2-yl)acetamide], the IC50 in series [1] (setting [7]) came to 198 nM; in series [2], 7.8 nM; in series [4] it was 7.5 nM; in series [5] it was 9.9 nM; in series [6], 35 nM. Besides, the Papp B→A in series [3] (MDCK-MDR1, MDCK-MDR1, B to A) was 11 ×10⁻⁶ cm/s. The Papp A→B in series [3] is under 1 ×10⁻⁶ cm/s.
As to `CC(C)(CO)n1cc(C(=O)c2cncc(NC(=O)Cn3ccc(C(F)(F)F)n3)c2)c2cnc(N)nc21` [Example 52, N-(5-{[2-amino-7-(2-hydroxy-1,1-dimethylethyl)-7H-pyrrolo[2,3-d]pyrimidin-5-yl]carbonyl}pyridin-3-yl)-2-[3-(trifluoromethyl)-1H-pyrazol-1-yl]acetamide], the IC50 is 103 nM in series [1] (TrkB enzyme potency); 3.1 nM in series [2]; 16 nM in series [4]; 8.1 nM in series [5]; 22 nM in series [6]. Besides, in series [3], the Papp A→B was under 1 ×10⁻⁶ cm/s. In addition, the Papp B→A in series [3] (MDCK-MDR1, B to A) is 9.1 ×10⁻⁶ cm/s.
Regarding `CC(C)(CO)n1cc(C(=O)c2cncc(NC(=O)Cn3ccc(C4CC4)n3)c2)c2cnc(N)nc21` [Example 53, N-(5-{[2-amino-7-(2-hydroxy-1,1-dimethylethyl)-7H-pyrrolo[2,3-d]pyrimidin-5-yl]carbonyl}pyridin-3-yl)-2-(3-cyclopropyl-1H-pyrazol-1-yl)acetamide], the IC50 in series [1] (TrkB enzyme potency) was 163 nM; in series [2], 4 nM; in series [4] it was 5 nM; in series [5], 8.6 nM; in series [6], 16 nM. Also, the Papp A→B in series [3] was under 1 ×10⁻⁶ cm/s. For the same molecule, in series [3] (MDCK-MDR1, B to A), the Papp B→A was 13 ×10⁻⁶ cm/s.
